Results as given in a compilation of properties of binary mixtures (doi:10.1021/acs.jced.2c00096).

Experiment: xn = mol fraction of the nth substance listed
Settings: 100 kPa

CCCC[N+]1(C)CCCC1.O=S(=O)([O-])C(F)(F)F + O
Settings | electrical conductivity [S/m] | viscosity [mPa·s]
288.15 K, x2 = 0.1203 | 0.173 | 196
288.15 K, x2 = 0.1956 | 0.21 | 151.5
288.15 K, x2 = 0.4836 | 0.458 | 56.8
288.15 K, x2 = 0.5819 | 0.603 | 40.25
288.15 K, x2 = 0.6794 | 0.78 | 27.75
288.15 K, x2 = 0.8612 | 1.43 | 10.36
288.15 K, x2 = 0.95 | 1.75 | 3.99
293.15 K, x2 = 0.0597 | 0.188 | 181.1
293.15 K, x2 = 0.1203 | 0.22 | 148.6
293.15 K, x2 = 0.1956 | 0.266 | 116.3
293.15 K, x2 = 0.3766 | 0.426 | 64.1
293.15 K, x2 = 0.4836 | 0.563 | 45
293.15 K, x2 = 0.5819 | 0.732 | 32.19
293.15 K, x2 = 0.6794 | 0.954 | 22.37
293.15 K, x2 = 0.7673 | 1.26 | 15.18
293.15 K, x2 = 0.95 | 2.07 | 3.36
298.15 K, x2 = 0.1203 | 0.276 | 114.9
298.15 K, x2 = 0.1956 | 0.334 | 91
298.15 K, x2 = 0.3197 | 0.453 | 61.1
298.15 K, x2 = 0.4836 | 0.68 | 36.38
298.15 K, x2 = 0.5819 | 0.886 | 26.17
298.15 K, x2 = 0.8612 | 2.04 | 7.14
303.15 K, x2 = 0.0597 | 0.299 | 108.4
303.15 K, x2 = 0.1203 | 0.343 | 90.6
303.15 K, x2 = 0.1956 | 0.406 | 72.5
303.15 K, x2 = 0.3197 | 0.545 | 49.4
303.15 K, x2 = 0.4836 | 0.808 | 29.8
303.15 K, x2 = 0.5819 | 1.04 | 21.59
303.15 K, x2 = 0.6794 | 1.37 | 15.22
303.15 K, x2 = 0.7673 | 1.79 | 10.5
303.15 K, x2 = 0.8612 | 2.38 | 6.05
308.15 K, x2 = 0.0597 | 0.364 | 86.1
308.15 K, x2 = 0.1956 | 0.488 | 58.6
308.15 K, x2 = 0.3197 | 0.647 | 40.48
308.15 K, x2 = 0.4836 | 0.953 | 24.76
308.15 K, x2 = 0.5819 | 1.23 | 18.04
308.15 K, x2 = 0.6794 | 1.6 | 12.8
308.15 K, x2 = 0.7673 | 2.08 | 8.89
308.15 K, x2 = 0.8612 | 2.77 | 5.14
308.15 K, x2 = 0.95 | 3.16 | 2.17
313.15 K, x2 = 0.0597 | 0.435 | 69.4
313.15 K, x2 = 0.1203 | 0.497 | 58.9
313.15 K, x2 = 0.3197 | 0.76 | 33.61
313.15 K, x2 = 0.3766 | 0.866 | 28.63
313.15 K, x2 = 0.4836 | 1.11 | 20.81
313.15 K, x2 = 0.6794 | 1.86 | 10.89
313.15 K, x2 = 0.7673 | 2.4 | 7.6
313.15 K, x2 = 0.8612 | 3.17 | 4.47
313.15 K, x2 = 0.95 | 3.56 | 1.91
318.15 K, x2 = 0.0597 | 0.52 | 56.7
318.15 K, x2 = 0.1956 | 0.68 | 39.82
318.15 K, x2 = 0.3766 | 1.01 | 24.15
318.15 K, x2 = 0.4836 | 1.28 | 17.69
318.15 K, x2 = 0.5819 | 1.63 | 13.03
318.15 K, x2 = 0.6794 | 2.14 | 9.36
318.15 K, x2 = 0.7673 | 2.75 | 6.57
318.15 K, x2 = 0.8612 | 3.61 | 3.9
318.15 K, x2 = 0.95 | 4 | 1.7
323.15 K, x2 = 0.1203 | 0.686 | 40.38
323.15 K, x2 = 0.3197 | 1.03 | 23.95
323.15 K, x2 = 0.3766 | 1.16 | 20.59
323.15 K, x2 = 0.4836 | 1.47 | 15.18
323.15 K, x2 = 0.7673 | 3.11 | 5.73
323.15 K, x2 = 0.8612 | 4.06 | 3.43
328.15 K, x2 = 0.0597 | 0.713 | 39.32
328.15 K, x2 = 0.1203 | 0.796 | 34.03
328.15 K, x2 = 0.1956 | 0.921 | 28.34
328.15 K, x2 = 0.3197 | 1.17 | 20.52
328.15 K, x2 = 0.4836 | 1.67 | 13.15
328.15 K, x2 = 0.5819 | 2.12 | 9.79
328.15 K, x2 = 0.6794 | 2.76 | 7.1
328.15 K, x2 = 0.7673 | 3.5 | 5.04
328.15 K, x2 = 0.8612 | 4.55 | 3.04
328.15 K, x2 = 0.95 | 4.93 | 1.37
333.15 K, x2 = 0.0597 | 0.83 | 33.27
333.15 K, x2 = 0.1203 | 0.918 | 28.94
333.15 K, x2 = 0.1956 | 1.05 | 24.27
333.15 K, x2 = 0.3197 | 1.33 | 17.75
333.15 K, x2 = 0.3766 | 1.48 | 15.39
333.15 K, x2 = 0.4836 | 1.88 | 11.49
333.15 K, x2 = 0.6794 | 3.09 | 6.26
333.15 K, x2 = 0.7673 | 3.91 | 4.46
333.15 K, x2 = 0.8612 | 5.05 | 2.71
333.15 K, x2 = 0.95 | 5.42 | 1.24
